Reference: paper PMC5784824 (Journal of immunology (Baltimore, Md. : 1950), 2017)

Experiments:
hP2X4 = target: T1, hP2X4 (Homo sapiens, UniProt Q99571); assay: Fura-2 intracellular Ca2+ measurement in over-expressing […]1 cells; assay type: cell-based; conditions: agonist; pH 7.4; 1.5 mM CaCl2 buffer
T1 sequence (Q99571 1-388): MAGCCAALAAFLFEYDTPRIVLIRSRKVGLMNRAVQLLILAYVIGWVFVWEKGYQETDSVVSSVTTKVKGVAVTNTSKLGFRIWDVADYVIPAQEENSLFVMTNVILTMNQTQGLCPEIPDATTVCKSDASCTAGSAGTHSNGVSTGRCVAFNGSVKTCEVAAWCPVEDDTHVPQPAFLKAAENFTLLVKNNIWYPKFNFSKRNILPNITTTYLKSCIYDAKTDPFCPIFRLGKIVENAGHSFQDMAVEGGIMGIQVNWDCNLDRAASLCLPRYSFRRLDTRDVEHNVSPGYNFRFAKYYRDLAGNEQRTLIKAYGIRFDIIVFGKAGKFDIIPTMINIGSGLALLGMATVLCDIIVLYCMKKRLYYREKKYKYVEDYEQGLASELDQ

hP2X7 = target: T2, hP2X7 (Homo sapiens, UniProt Q99572); assay: as above; assay type: cell-based; conditions: agonist; pH 7.4; 1.5 mM CaCl2 buffer
T2 sequence (Q99572 1-595): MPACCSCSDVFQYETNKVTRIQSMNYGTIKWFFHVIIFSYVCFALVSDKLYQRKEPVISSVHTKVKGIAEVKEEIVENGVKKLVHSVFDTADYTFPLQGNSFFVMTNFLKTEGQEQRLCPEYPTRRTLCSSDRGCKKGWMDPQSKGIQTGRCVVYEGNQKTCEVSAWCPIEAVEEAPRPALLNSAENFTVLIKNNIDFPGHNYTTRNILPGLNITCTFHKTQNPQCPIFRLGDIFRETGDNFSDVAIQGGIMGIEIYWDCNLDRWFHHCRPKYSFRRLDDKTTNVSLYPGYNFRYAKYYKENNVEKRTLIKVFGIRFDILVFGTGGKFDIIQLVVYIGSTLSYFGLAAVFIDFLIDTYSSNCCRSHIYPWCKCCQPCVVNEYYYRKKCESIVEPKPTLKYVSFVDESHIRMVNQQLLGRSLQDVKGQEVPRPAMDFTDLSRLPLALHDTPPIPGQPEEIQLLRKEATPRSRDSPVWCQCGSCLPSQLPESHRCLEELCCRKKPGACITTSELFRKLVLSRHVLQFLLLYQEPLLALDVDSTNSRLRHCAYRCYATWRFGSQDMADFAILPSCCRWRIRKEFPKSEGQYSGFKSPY

Nc1ncnc2c1ncn2[C@@H]1O[C@H](COP(=O)(O)OP(=O)(O)OP(=O)(O)O)[C@@H](O)[C@H]1O [ATP]
Ca2+ response (activation) at 100 μM ATP (hP2X4): in over-expressing cells illustrated maximal activation of P2X4 and no activation of P2X7 | Ca2+ response (no activation) at 100 μM ATP (hP2X7): in over-expressing cells illustrated maximal activation of P2X4 and no activation of P2X7
